Test results from patent US11001600B2, “Disubstituted compounds for treatment of medical disorders” (Achillion Pharmaceuticals, Inc., priority 2015, dated 2021).

These compounds were tested against Human Factor D (Homo sapiens (Human), UniProt P00746) (assay: Human Factor D assay). Conditions: not given.
Assay type: biochemical
Description: Example 8. Human Factor D Assay
Human Factor D (purified from human serum, Complement Technology, Inc.) at 80 nM final concentration is incubated with test compound at various concentrations for 5 minutes at room temperature in 50 mM Tris, 1M NaCl, pH 7.5. A synthetic substrate Z-L-Lys-SBzl and DTNB (Ellman's reagent) are added to final concentrations of 100 μM each. Absorbance at 405 nm (A405) is recorded at 30 second intervals for 30 minutes using a microplate spectrophotometer. IC50 values are calculated by nonlinear regression of complement Factor D reaction rates as a function of test compound concentration.

Sequence of Human Factor D (P00746 26-253): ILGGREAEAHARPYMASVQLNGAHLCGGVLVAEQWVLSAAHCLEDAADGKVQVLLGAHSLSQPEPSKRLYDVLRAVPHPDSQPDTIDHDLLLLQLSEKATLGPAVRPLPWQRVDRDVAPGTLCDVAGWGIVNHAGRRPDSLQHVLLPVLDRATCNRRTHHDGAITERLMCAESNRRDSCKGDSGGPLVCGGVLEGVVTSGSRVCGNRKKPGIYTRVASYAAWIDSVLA

Compound | IC50 [nM]
CC(C)(C)OC(=O)N=S(C)(=O)c1cccc(-c2cccc(NC(=O)[C@@H]3C[C@@H](F)CN3C(=O)Cn3nc(C(N)=O)c4ccccc43)c2F)c1 (stereo partly drawn) [Compound 49, tert-butyl ((3′-((2S,4R)-1-(2-(3-carbamoyl-1H-indazol-1-yl)acetyl)-4-fluoropyrrolidine-2-carboxamido)-2′-fluoro-[1,1′-biphenyl]-3-yl)(methyl)(oxo)-16-sulfaneylidene)-14-azanecarboxylate] | 1000 to 10000

Same assay, conditions: Factor D 80 nM, substrate Z-L-Lys-SBzl; Table 1; read-out: IC50

Compound | IC50 [nM]
CCOP(=O)(COc1cc2c(cc1-c1cnc(C)nc1)c(C(C)=O)cn2CC(=O)N1C[C@H](F)C[C@H]1C(=O)Nc1cccc(-c2ccccc2Cl)c1F)OCC [Compound 8, diethyl (3-acetyl-1-(2-((2S,4R)-2-(2′-chloro-2-fluorobiphenyl-3-ylcarbamoyl)-4-fluoropyrrolidin-1-yl)-2-oxoethyl)-5-(2-methylpyrimidin-5-yl)-1H-indol-6-yloxy)methylphosphonate] | < 1000
CC(=O)c1cn(CC(=O)N2C[C@H](F)C[C@H]2C(=O)Nc2cccc(-c3ccccc3Cl)c2F)c2cc(OCP(=O)(O)O)c(-c3cnc(C)nc3)cc12 [Compound 9, (3-acetyl-1-(2-((2S,4R)-2-(2′-chloro-2-fluorobiphenyl-3-ylcarbamoyl)-4-fluoropyrrolidin-1-yl)-2-oxoethyl)-5-(2-methylpyrimidin-5-yl)-1H-indol-6-yloxy)methylphos-phonic acid] | < 1000
CC(=O)c1cn(CC(=O)N2C[C@H](F)C[C@H]2C(=O)Nc2cccc(Br)n2)c2cc(OCP(=O)(O)O)c(-c3cnc(C)nc3)cc12 [Compound 13, (3-acetyl-1-(2-((2S,4R)-2-(6-bromopyridin-2-ylcarbamoyl)-4-fluoropyrrolidin-1-yl)-2-oxoethyl)-5-(2-methylpyrimidin-5-yl)-1H-indol-6-yloxy)methylphos-phonic acid] | < 1000

Same assay, conditions: Factor D 80 nM, substrate Z-L-Lys-SBzl; Table 2 (headed TABLE 1); read-out: IC50

Compound | IC50 [nM]
CC(=O)c1nn(CC(=O)N2C[C@H](F)C[C@H]2C(=O)Nc2cccc(Br)n2)c2cc(OCC(=O)N(C)C)c(-c3cnc(C)nc3)cc12 [Compound 26, (2S,4R)-1-(2-(3-acetyl-6-(2-(dimethylamino)-2-oxoethoxy)-5-(2-methylpyrimidin-5-yl)-1H-indazol-1-yl)acetyl)-N-(6-bromopyridin-2-yl)-4-fluoropyrrolidine-2-carboxamide] | < 1000
CC(=O)c1nn(CC(=O)N2C[C@H](F)C[C@H]2C(=O)Nc2cccc(Br)n2)c2cc(OCCOCc3ccccc3)c(-c3cnc(C)nc3)cc12 [Compound 33, (2S,4R)-1-(2-(3-acetyl-6-(2-(benzyloxy)ethoxy)-5-(2-methylpyrimidin-5-yl)-1H-indazol-1-yl)acetyl)-N-(6-bromopyridin-2-yl)-4-fluoropyrrolidine-2-carboxamide] | < 1000
COCOCCOc1cc2c(cc1-c1cnc(C)nc1)c(C(C)=O)nn2CC(=O)N1C[C@H](F)C[C@H]1C(=O)Nc1cccc(Br)n1 [Compound 39, (2S,4R)-1-(2-(3-acetyl-6-(2-(methoxymethoxy)ethoxy)-5-(2-methylpyrimidin-5-yl)-1H-indazol-1-yl)acetyl)-N-(6-bromopyridin-2-yl)-4-fluoropyrrolidine-2-carboxamide] | < 1000
CC(=O)c1nn(CC(=O)N2C[C@H](F)C[C@H]2C(=O)Nc2cccc(Br)n2)c2cc(OCCO)c(-c3cnc(C)nc3)cc12 [Compound 41, (2S,4R)-1-(2-(3-acetyl-6-(2-hydroxyethoxy)-5-(2-methylpyrimidin-5-yl)-1H-indazol-1-yl)acetyl)-N-(6-bromopyridin-2-yl)-4-fluoropyrrolidine-2-carboxamide] | < 1000
CC(=O)c1nn(CC(=O)N2C[C@H](F)C[C@H]2C(=O)Nc2cccc(Br)n2)c2cc(OCCN(C)C)c(-c3cnc(C)nc3)cc12 [Compound 44, (2S,4R)-1-(2-(3-acetyl-6-(2-(dimethylamino)ethoxy)-5-(2-methylpyrimidin-5-yl)-1H-indazol-1-yl)acetyl)-N-(6-bromopyridin-2-yl)-4-fluoropyrrolidine-2-carboxamide] | < 1000
CC(=O)c1nn(CC(=O)N2C[C@H](F)C[C@H]2C(=O)Nc2cccc(Br)n2)c2ccc(-c3cnc(S(C)(=N)=O)nc3)cc12 (stereo partly drawn) [Compound 46, (2S,4R)-1-(2-(3-acetyl-5-(2-(S-methylsulfonimidoyl)pyrimidin-5-yl)-1H-indazol-1-yl)acetyl)-N-(6-bromopyridin-2-yl)-4-fluoropyrrolidine-2-carboxamide] | < 1000
CC(=O)c1cn(CC(=O)N2C[C@H](F)C[C@H]2C(=O)Nc2cccc(Br)n2)c2ccc(S(C)(=O)=NC(=O)OC(C)(C)C)cc12 (stereo partly drawn) [Compound 47, tert-butyl ((3-acetyl-1-(2-((2S,4R)-2-((6-bromopyridin-2-yl)carbamoyl)-4-fluoropyrrolidin-1-yl)-2-oxoethyl)-1H-indol-5-yl)(methyl)(oxo)-16-sulfaneylidene)-14-azanecarboxylate] | < 1000
CC(=O)c1cn(CC(=O)N2C[C@H](F)C[C@H]2C(=O)Nc2cccc(Br)n2)c2ccc(S(C)(=N)=O)cc12 (stereo partly drawn) [Compound 48, (2S,4R)-1-(2-(3-acetyl-5-(S-methylsulfonimidoyl)-1H-indol-1-yl)acetyl)-N-(6-bromopyridin-2-yl)-4-fluoropyrrolidine-2-carboxamide] | < 1000
